Measurements: patent US10093713B2, “GIP-GLP-1 dual agonist compounds and methods” (priority 2013, dated 2018)
Like-named read-outs stand apart in the source and are kept apart here. *1 amine or outer side, *2 acyl side, *3 side chain or, on linkers, in order; H or OH if unused. Where a SMILES comes first, the peptide text is derived from it. Side-chain parts run from the residue outwards. [ ]: non-standard residue; d: D form. The star is where a group is joined. C20 diacid = O=C(O)CCCCCCCCCCCCCCCCCCC(=O)*; C18 diacid = O=C(O)CCCCCCCCCCCCCCCCC(=O)*; γGlu = O=C(O)[C@H](CCC(=O)[*:2])N[*:1]; AEEA = NCCOCCOCC(=O)O; Aib = CC(C)(N)C(=O)O

Experiments:
human GLP-1 R = target: T1, human GLP-1 R (Homo sapiens, UniProt P43220); assay: Human GLP-1 receptor (GLP-1 R) activity assay, cAMP induction (AlphaScreen) in HEK293 cells; type: cell-based
T1 construct: expressed in transfected cells
Protocol: (§1) Human GIP Receptor (GIP R) and GLP-1 Receptor (GLP-1 R) Activity Assay
(§2) In vitro effects of peptide conjugates of the invention were assessed by measuring the induction of cAMP following stimulation of the respective receptor by GIP, GLP1 or analogues of these, as outlined in the invention, using the AlphaSceen® cAMP kit from Perkin-Elmer according to instructions. Briefly, HEK293 cells expressing the human GIP R or GLP-1 R (stable cell lines generated through transfection of the cDNA for human GIP R or GLP-1 and selection of stable clones) were seeded at 30,000 cells/well in 96-well microtiter plates coated with 0.01% poly-L-lysine, and grown for 1 day in culture in 200 μl growth medium (DMEM, 10% FCS, Penicillin (100 IU/ml), Streptomycin (100 μg/ml)). On the day of analysis, growth medium was removed and the cells were washed once with […] Tyrode's buffer (Tyrode's Salts (9.6 g/l), 10 mM HEPES, pH 7.4). […] The Assay buffer was removed and cells are lysed in 80 μl Lysis buffer (0.1% w/v BSA, 5 mM HEPES, 0.3% v/v Tween-20) per well. From each well 10 μl lysed cells was transferred to a 384-well plate and mixed with 15 μl bead-mix (1 Unit/15 μl anti-cAMP Acceptor Beads, 1 Unit/15 μl Donor Beads, and 1 Unit/15 μl Biotinylated cAMP in Assay Buffer). The plates were mixed and incubated in the dark for an hour at room temperature before measuring using an Envision™ plate reader (Perkin-Elmer).
(§3) The resulting cAMP curves were plotted as absolute cAMP concentrations (nM) over log (test compound concentration) and analyzed using the curve fitting program XLfit.
(§4) Parameters calculated to describe both the potency as well as the agonistic activity of each test compound on the receptors were:
(§5) EC50, a concentration resulting in a half-maximal elevation of cAMP levels, reflecting the potency of the test compound.

human GIP R = target: T2, human GIP R (Homo sapiens, UniProt P48546); assay: Human GIP receptor (GIP R) activity assay, cAMP induction (AlphaScreen) in HEK293 cells; type: cell-based; conditions: read-out: hGIP-R cAMP EC50 average value
T2 construct: expressed in transfected cells
T2 sequence (P48546 22-466): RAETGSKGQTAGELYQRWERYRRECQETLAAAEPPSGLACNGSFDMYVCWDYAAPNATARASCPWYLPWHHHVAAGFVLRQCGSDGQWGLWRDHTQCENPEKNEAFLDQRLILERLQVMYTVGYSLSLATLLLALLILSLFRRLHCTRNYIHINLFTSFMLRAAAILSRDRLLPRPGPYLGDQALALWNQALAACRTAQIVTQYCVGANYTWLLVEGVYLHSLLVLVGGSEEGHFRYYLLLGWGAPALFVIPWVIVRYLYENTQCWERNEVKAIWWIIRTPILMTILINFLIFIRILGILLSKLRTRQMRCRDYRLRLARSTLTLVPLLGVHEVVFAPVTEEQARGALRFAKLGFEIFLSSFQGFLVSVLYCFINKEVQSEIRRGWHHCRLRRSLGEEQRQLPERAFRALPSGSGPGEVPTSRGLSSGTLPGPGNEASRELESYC
Protocol: as §1, §2, §3, §4, §5

[1] = Table 3, most comprehensive data
[2] = Table 3, most comprehensive data, read-out: hGLP-1-R cAMP EC50 average value

T1 sequence (P43220 24-463): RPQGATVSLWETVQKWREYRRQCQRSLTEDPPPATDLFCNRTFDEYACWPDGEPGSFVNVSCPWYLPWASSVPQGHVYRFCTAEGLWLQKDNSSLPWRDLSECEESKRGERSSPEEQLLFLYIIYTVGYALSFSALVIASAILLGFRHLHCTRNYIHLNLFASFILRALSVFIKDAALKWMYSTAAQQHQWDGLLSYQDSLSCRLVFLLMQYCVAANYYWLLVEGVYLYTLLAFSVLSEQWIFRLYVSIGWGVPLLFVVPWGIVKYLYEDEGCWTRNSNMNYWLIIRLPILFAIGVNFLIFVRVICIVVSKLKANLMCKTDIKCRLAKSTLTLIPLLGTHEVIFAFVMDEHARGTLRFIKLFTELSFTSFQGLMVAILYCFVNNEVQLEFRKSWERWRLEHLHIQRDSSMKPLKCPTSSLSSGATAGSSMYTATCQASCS

EC50 (human GLP-1 R; Table 2, HEK293 cells expressing human GLP-1 R, read-out: hGLP1-R cAMP EC50 average value) [pM]	EC50 (human GIP R; Table 2, HEK293 cells expressing human GIP R) [pM]	Structure (SMILES)	EC50 (human GIP R; [1]) [pM]	EC50 (human GLP-1 R; [2]) [pM]	EC50 (human GLP-1 R; Table 2a, secondary assay study, read-out: hGLP1-R cAMP EC50 average value) [pM]	EC50 (human GIP R; Table 2a, secondary assay study) [pM]
44	200	CC[C@H](C)[C@H](NC(=O)[C@H](CO)NC(=O)[C@H](Cc1ccc(O)cc1)NC(=O)[C@H](CC(=O)O)NC(=O)[C@H](CO)NC(=O)[C@@H](NC(=O)[C@H](Cc1ccccc1)NC(=O)[C@@H](NC(=O)CNC(=O)[C@H](CCC(=O)O)NC(=O)C(C)(C)NC(=O)[C@@H](N)Cc1ccc(O)cc1)[C@@H](C)O)[C@@H](C)O)C(=O)N[C@@H](C)C(=O)N[C@@H](CC(C)C)C(=O)N[C@@H](CCC(=O)O)C(=O)N[C@@H](CCCCN)C(=O)N[C@@H](CCCCNC(=O)COCCOCCNC(=O)COCCOCCNC(=O)CC[C@H](NC(=O)CCCCCCCCCCCCCCCCC(=O)O)C(=O)O)C(=O)N[C@@H](C)C(=O)N[C@@H](CCC(N)=O)C(=O)N[C@@H](CCCNC(=N)N)C(=O)N[C@@H](C)C(=O)N[C@@H](Cc1ccccc1)C(=O)N[C@H](C(=O)N[C@@H](CCC(=O)O)C(=O)N[C@@H](Cc1c[nH]c2ccccc12)C(=O)N[C@@H](CC(C)C)C(=O)N[C@@H](CCC(=O)O)C(=O)N[C@@H](C)C(=O)N[C@@H](CCC(N)=O)C(=O)N[C@@H](CCCCN)C(N)=O)C(C)C [Compound 23] (H-Y[Aib]EGTFTSDYSIALEKK([AEEA-AEEA-γGlu-C18 diacid])AQRAFVEWLEAQK-NH2)	200	–	–	–
–	–	CC[C@H](C)[C@H](NC(=O)[C@H](CO)NC(=O)[C@H](Cc1ccc(O)cc1)NC(=O)[C@H](CC(=O)O)NC(=O)[C@H](CO)NC(=O)[C@@H](NC(=O)[C@H](Cc1ccccc1)NC(=O)[C@@H](NC(=O)CNC(=O)[C@H](CCC(=O)O)NC(=O)C(C)(C)NC(=O)[C@@H](N)Cc1ccc(O)cc1)[C@@H](C)O)[C@@H](C)O)C(=O)N[C@@H](C)C(=O)N[C@@H](CC(C)C)C(=O)N[C@@H](CC(=O)O)C(=O)N[C@@H](CCCCN)C(=O)N[C@@H](CCCCNC(=O)COCCOCCNC(=O)COCCOCCNC(=O)CC[C@H](NC(=O)CCCCCCCCCCCCCCCCCCC(=O)O)C(=O)O)C(=O)N[C@@H](C)C(=O)N[C@@H](CCC(N)=O)C(=O)N[C@@H](CCCNC(=N)N)C(=O)N[C@@H](C)C(=O)N[C@@H](Cc1ccccc1)C(=O)N[C@H](C(=O)N[C@@H](CCC(=O)O)C(=O)N[C@@H](Cc1c[nH]c2ccccc12)C(=O)N[C@@H](CC(C)C)C(=O)N[C@@H](CC(C)C)C(=O)N[C@@H](C)C(=O)N[C@@H](CCC(=O)O)C(=O)N1CCC[C@H]1C(=O)N[C@@H](CO)C(=O)N[C@@H](CO)C(=O)NCC(=O)N[C@@H](C)C(=O)N1CCC[C@H]1C(=O)N1CCC[C@H]1C(=O)N1CCC[C@H]1C(=O)N[C@@H](CO)C(N)=O)C(C)C [Compound 56] (H-Y[Aib]EGTFTSDYSIALDKK([AEEA-AEEA-γGlu-C20 diacid])AQRAFVEWLLAEPSSGAPPPS-NH2)	25	33	–	–
–	–	CC[C@H](C)[C@H](NC(=O)[C@H](Cc1ccccc1)NC(=O)[C@H](CCC(=O)O)NC(=O)[C@H](CCCCN)NC(=O)[C@H](C)NC(=O)[C@H](C)NC(=O)[C@H](CCCCNC(=O)COCCOCCNC(=O)COCCOCCNC(=O)CC[C@H](NC(=O)CCCCCCCCCCCCCCCCC(=O)O)C(=O)O)NC(=O)[C@H](CCC(=O)O)NC(=O)[C@H](CC(=O)O)NC(=O)[C@H](CC(C)C)NC(=O)[C@H](Cc1ccc(O)cc1)NC(=O)[C@@H](NC(=O)[C@H](CO)NC(=O)[C@H](Cc1ccc(O)cc1)NC(=O)[C@H](CC(=O)O)NC(=O)[C@H](CO)NC(=O)[C@@H](NC(=O)[C@H](Cc1ccccc1)NC(=O)[C@@H](NC(=O)CNC(=O)[C@H](CCC(=O)O)NC(=O)C(C)(C)NC(=O)[C@@H](N)Cc1ccc(O)cc1)[C@@H](C)O)[C@@H](C)O)[C@@H](C)CC)C(=O)N[C@@H](CCC(=O)O)C(=O)N[C@@H](Cc1c[nH]c2ccccc12)C(=O)N[C@@H](CC(C)C)C(=O)N[C@@H](CCC(=O)O)C(=O)N[C@@H](CO)C(=O)N[C@@H](C)C(N)=O [Compound 13]	150	57	–	–
–	–	CC[C@H](C)[C@H](NC(=O)[C@H](CO)NC(=O)[C@H](Cc1ccc(O)cc1)NC(=O)[C@H](CC(=O)O)NC(=O)[C@H](CO)NC(=O)[C@@H](NC(=O)[C@H](Cc1ccccc1)NC(=O)[C@@H](NC(=O)CNC(=O)[C@H](CCC(=O)O)NC(=O)C(C)(C)NC(=O)[C@@H](N)Cc1ccc(O)cc1)[C@@H](C)O)[C@@H](C)O)C(=O)N[C@@H](C)C(=O)N[C@@H](CC(C)C)C(=O)N[C@@H](CC(=O)O)C(=O)N[C@@H](CCCCN)C(=O)N[C@@H](CCCCNC(=O)COCCOCCNC(=O)COCCOCCNC(=O)CC[C@H](NC(=O)CCCCCCCCCCCCCCCCCCC(=O)O)C(=O)O)C(=O)N[C@@H](C)C(=O)N[C@@H](CCC(N)=O)C(=O)N[C@@H](CCCNC(=N)N)C(=O)N[C@@H](CCC(=O)O)C(=O)N[C@@H](Cc1ccccc1)C(=O)N[C@H](C(=O)N[C@@H](CCC(=O)O)C(=O)N[C@@H](Cc1c[nH]c2ccccc12)C(=O)N[C@@H](CC(C)C)C(=O)N[C@@H](CC(C)C)C(=O)N[C@@H](C)C(=O)N[C@@H](CCC(N)=O)C(=O)NCC(=O)N1CCC[C@H]1C(=O)N[C@@H](CO)C(=O)N[C@@H](CO)C(=O)NCC(=O)N[C@@H](C)C(=O)N1CCC[C@H]1C(=O)N1CCC[C@H]1C(=O)N1CCC[C@H]1C(=O)N[C@@H](CO)C(N)=O)C(C)C [Compound 47] (H-Y[Aib]EGTFTSDYSIALDKK([AEEA-AEEA-γGlu-C20 diacid])AQREFVEWLLAQGPSSGAPPPS-NH2)	5	16	–	–
–	–	CC[C@H](C)[C@H](NC(=O)[C@H](CO)NC(=O)[C@H](Cc1ccc(O)cc1)NC(=O)[C@H](CC(=O)O)NC(=O)[C@H](CO)NC(=O)[C@@H](NC(=O)[C@H](Cc1ccccc1)NC(=O)[C@@H](NC(=O)CNC(=O)[C@H](CCC(=O)O)NC(=O)C(C)(C)NC(=O)[C@@H](N)Cc1ccc(O)cc1)[C@@H](C)O)[C@@H](C)O)C(=O)N[C@@H](C)C(=O)N[C@@H](CC(C)C)C(=O)N[C@@H](CC(=O)O)C(=O)N[C@@H](CCCCN)C(=O)N[C@@H](CCCCNC(=O)COCCOCCNC(=O)COCCOCCNC(=O)CC[C@H](NC(=O)CCCCCCCCCCCCCCCCCCC(=O)O)C(=O)O)C(=O)N[C@@H](C)C(=O)N[C@@H](CCC(N)=O)C(=O)N[C@@H](CCCNC(=N)N)C(=O)N[C@@H](C)C(=O)N[C@@H](Cc1ccccc1)C(=O)N[C@H](C(=O)N[C@@H](CCC(=O)O)C(=O)N[C@@H](Cc1c[nH]c2ccccc12)C(=O)N[C@@H](CC(C)C)C(=O)N[C@@H](CC(C)C)C(=O)N[C@@H](C)C(=O)N[C@@H](CCC(N)=O)C(=O)NCC(=O)N1CCC[C@H]1C(=O)N[C@@H](CO)C(=O)N[C@@H](CO)C(=O)NCC(=O)N[C@@H](C)C(=O)N1CCC[C@H]1C(=O)N1CCC[C@H]1C(=O)N1CCC[C@H]1C(=O)N[C@@H](CO)C(N)=O)[C@@H](C)CC [Compound 50] (H-Y[Aib]EGTFTSDYSIALDKK([AEEA-AEEA-γGlu-C20 diacid])AQRAFIEWLLAQGPSSGAPPPS-NH2)	7	15	–	–
–	–	CC[C@H](C)[C@H](NC(=O)[C@H](Cc1ccccc1)NC(=O)[C@H](CCC(=O)O)NC(=O)[C@H](CCCCN)NC(=O)[C@H](C)NC(=O)[C@H](C)NC(=O)[C@H](CCCCNC(=O)COCCOCCNC(=O)COCCOCCNC(=O)CC[C@H](NC(=O)CCCCCCCCCCCCCCCCC(=O)O)C(=O)O)NC(=O)[C@H](CCC(=O)O)NC(=O)[C@H](CC(=O)O)NC(=O)[C@H](CC(C)C)NC(=O)[C@H](Cc1ccc(O)cc1)NC(=O)[C@@H](NC(=O)[C@H](CO)NC(=O)[C@H](Cc1ccc(O)cc1)NC(=O)[C@H](CC(=O)O)NC(=O)[C@H](CO)NC(=O)[C@@H](NC(=O)[C@H](Cc1ccccc1)NC(=O)[C@@H](NC(=O)CNC(=O)[C@H](CCC(=O)O)NC(=O)C(C)(C)NC(=O)[C@@H](N)Cc1ccc(O)cc1)[C@@H](C)O)[C@@H](C)O)[C@@H](C)CC)C(=O)N[C@@H](CCC(=O)O)C(=O)N[C@@H](Cc1c[nH]c2ccccc12)C(=O)N[C@@H](CC(C)C)C(=O)N[C@@H](CCC(=O)O)C(=O)N[C@@H](CO)C(=O)N[C@@H](C)C(N)=O [Compound 14]	–	–	56	147
